Experimental data: the supplement of paper PMC10307832

How the values were obtained:
Assay in all cases: relative viability (nuclei count vs DMSO), 5 days (fraction); higher = more cells survive
[1] = compound: NC(=O)[C@@H](CCC(F)(F)F)N(Cc1ccc(-c2ncon2)cc1F)S(=O)(=O)c1ccc(Cl)cc1 [Avagacestat] + COc1cccc2cc(-c3nc([C@H]4CC[C@H](C(=O)O)CC4)n4ncnc(N)c34)[nH]c12 [OSI-027] (partner 0.5 µM)
How it was run: (§1)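 Lung cancer cell lines were pin-tool dosed in 1536-well plates on the day after seeding, with either a lone drug or a fixed anchor-drug dose plus five library-drug doses (not always all listed) in √10 steps. Nuclei were counted on 4× images after 5 days. Relative viability is the ratio of treated-well to vehicle-well nuclei counts, with each value a median of duplicate plates.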

[2] = compound: NC(=O)[C@@H](CCC(F)(F)F)N(Cc1ccc(-c2ncon2)cc1F)S(=O)(=O)c1ccc(Cl)cc1 [Avagacestat] + NC(=O)Nc1cc(-c2cccc(F)c2)sc1C(=O)N[C@H]1CCCNC1 [AZD7762] (partner 0.2 µM)
How it was run: as §1

[3] = compound: NC(=O)[C@@H](CCC(F)(F)F)N(Cc1ccc(-c2ncon2)cc1F)S(=O)(=O)c1ccc(Cl)cc1 [Avagacestat] + COc1cc2c(Oc3ccc(NC(=O)C4(C(=O)Nc5ccc(F)cc5)CC4)cc3F)ccnc2cc1OCCCN1CCOCC1 [Foretinib] (partner 0.25 µM)
How it was run: as §1

[4] = compound: NC(=O)[C@@H](CCC(F)(F)F)N(Cc1ccc(-c2ncon2)cc1F)S(=O)(=O)c1ccc(Cl)cc1 [Avagacestat] + Nc1nc2[nH]cc(CCc3ccc(C(=O)N[C@@H](CCC(=O)O)C(=O)O)cc3)c2c(=O)[nH]1 [Pemetrexed] (partner 0.2 µM)
How it was run: as §1

Cell Line	relative viability ([1]; first compound 0.08 µM)	relative viability ([1]; first compound 0.253 µM)	relative viability ([1]; first compound 0.8 µM)	relative viability ([1]; first compound 2.53 µM)	relative viability ([1]; first compound 8 µM)	relative viability ([2]; first compound 0.08 µM)	relative viability ([2]; first compound 0.253 µM)	relative viability ([2]; first compound 0.8 µM)	relative viability ([2]; first compound 2.53 µM)	relative viability ([2]; first compound 8 µM)	relative viability ([3]; first compound 0.08 µM)	relative viability ([3]; first compound 0.253 µM)	relative viability ([3]; first compound 0.8 µM)	relative viability ([3]; first compound 2.53 µM)	relative viability ([3]; first compound 8 µM)	relative viability ([4]; first compound 0.08 µM)	relative viability ([4]; first compound 0.253 µM)	relative viability ([4]; first compound 0.8 µM)	relative viability ([4]; first compound 2.53 µM)	relative viability ([4]; first compound 8 µM)
NCI-H1755	0.816	0.748	0.742	0.654	0.579	0.425	0.672	0.4	0.38	0.473	0.951	0.921	1	0.847	0.849	0.541	0.478	0.383	0.372	0.383
NCI-H23	0.778	0.619	0.8	0.627	0.537	0.227	0.229	0.219	0.282	0.225	1.11	1.17	0.925	1.14	0.93	0.966	0.863	0.905	0.801	0.31
NCI-H838	0.364	0.466	0.389	0.398	0.366	0.988	0.971	0.997	0.857	0.861	1.1	1.35	1.07	1.01	0.944	0.263	0.271	0.28	0.238	0.243
NCI-H460	0.953	1.19	0.752	0.551	0.418	0.768	0.87	0.863	0.682	0.608	1.02	1.4	1.05	0.827	0.885	0.0657	0.0554	0.0635	0.0567	0.0624
201T	0.803	0.988	0.942	0.529	0.76	0.65	0.712	0.607	0.56	0.587	1.18	1.45	1.06	0.944	1.1	0.314	0.352	0.351	0.301	0.335
NCI-H358	0.895	0.79	0.768	0.682	0.738	0.516	0.595	0.57	0.481	0.461	0.7	0.866	0.737	0.598	0.665	0.168	0.197	0.18	0.172	0.168
ChaGo-K-1	0.659	0.655	0.6	0.456	0.451	0.896	0.855	0.818	0.794	0.733	0.935	1	0.856	0.825	0.786	0.275	0.271	0.265	0.266	0.267
NCI-H1651	0.761	0.814	0.848	0.751	0.656	0.531	0.538	0.561	0.441	0.36	0.899	0.884	0.895	0.847	0.596	0.71	0.591	0.731	0.574	0.559
LU99A	0.285	0.28	0.278	0.286	0.266	0.422	0.407	0.314	0.341	0.329	0.807	0.875	0.925	0.837	0.786	0.25	0.232	0.182	0.226	0.155
LC-2-ad	0.796	0.898	0.855	0.795	0.739	0.947	0.927	0.843	0.761	0.616	1	1.03	0.914	0.854	0.868	0.286	0.276	0.264	0.263	0.273
NCI-H1975	0.874	0.709	0.873	0.582	0.603	0.718	0.712	0.853	0.649	0.642	1.1	1.16	0.988	1.02	1.01	0.312	0.325	0.316	0.291	0.308
NCI-H322M	0.519	0.562	0.571	0.501	0.488	0.609	0.542	0.496	0.503	0.588	0.969	0.935	1.04	0.728	0.774	0.621	0.619	0.632	0.608	0.569
NCI-H1666	1.2	0.933	1.1	0.911	0.905	1	0.88	1	0.93	0.876	1.32	1.15	1.16	1.07	1.07	0.938	0.871	0.877	0.822	0.889
NCI-H1355	0.404	0.388	0.426	0.38	0.342	0.98	0.777	0.809	0.654	0.699	1.11	1.24	0.961	0.846	0.785	1.15	1.15	1.21	0.996	0.943
PC-3 [JPC-3]	0.912	0.799	0.908	0.697	0.735	0.983	0.972	1.19	0.842	0.775	1.19	1.09	1.15	1.02	1.01	1.24	1.36	1.62	1.25	1.04
NCI-H650	0.638	0.472	0.576	0.573	0.445	1.06	0.963	1.19	1.09	0.822	1.05	1.08	1.11	1.08	1.11	1.05	1.04	1.04	0.944	0.868
